Reference: patent US20230330251A1, “METHODS FOR TREATING CANCERS WITH ANTIBODY DRUG CONJUGATES (ADC) THAT BIND TO 191P4D12 PROTEINS” (AGENSYS, INC., priority 2020, published 2023)

Columns and labels:
Assay type in all cases: in vivo, human
[1] = system: subjects with previously treated locally advanced or metastatic urothelial cancer; test: EV-301: duration of response (DOR) per RECIST V1.1
Description: Duration of Response (DOR) is defined as the time from the date of the first response CR/PR per RECIST V1.1 (whichever is first recorded) that is subsequently confirmed as assessed by investigator to the date of radiological progression or date of death for subjects who achieved CR or PR. If a subject has not progressed or died, the subject was censored at the date of last radiological assessment or at the date of first CR/PR if no other post-baseline radiological assessment is available after the first CR/PR. The median DOR was estimated using the Kaplan-Meier method and is reported along with the corresponding 95% confidence interval by treatment arm.

[2] = system: metastatic urothelial cancer patients and non-metastatic urothelial cancer patients; test: Phase 1 study of EV, escalating dose levels 0.5-1.25 mg/kg: safety, DLT, MTD
Experimental: EV will be administered at a dose of 1.25 mg/kg as an intravenous infusion over approximately 30 minutes on Days 1, 8, and 15 of each 28-day cycle. […] A maximum tolerated dose (MTD) was not reached in this study. At the 1 mg/kg dose level, 2 dose- limiting toxicities (DLTs) were observed: Grade 3 proctalgia (later changed to grade 2 by the investigator) thought related to radiation recall and Grade 4 hyperuricemia without clinical sequelae.
Moreover, dose reductions due to AEs were more frequent for the 1.25 mg/kg vs lower dose levels.
In the phase 1 study, rash and similar dermatologic AE's were common among patients treated with EV, and were seen more frequently at the highest dose. Although the exact etiology of dermatologic toxicities associated with EV is unclear at this time, due to the expression of nectin-4 in the skin, rash maybe an on target toxicity. The most common type of dermatological AE reported in ASG-22CE-13-2 was maculo-papular rash, rash, skin exfoliation, and skin pigmentation disorder. Most occurred early on (during cycle 1), and some were associated with pruritus. Mild rash due to EV should be treated using local supportive care as needed. Topical corticosteroids have been used along with antihistamines for pruritus as needed.

[3] = system: subjects with previously treated locally advanced or metastatic urothelial cancer; test: EV-301 phase 3 study: overall survival (OS), enfortumab vedotin vs chemotherapy
Description: Subjects will be stratified according to the following: Eastern Cooperative Oncology Group Performance Status (ECOG PS), regions of the world and liver metastasis.
OS is the primary endpoint. OS is defined as the time from randomization to the date of death. Secondary endpoints include PFS1, ORR, DOR, DCR, safety and QOL/PRO.
Subjects in Arm A will receive EV on Days 1, 8 and 15 of each 28-day cycle. […] Within the control arm, the overall proportion of subjects receiving vinflunine will be capped at approximately 35%. Subjects will continue to receive study treatment until radiological disease progression as determined per investigator assessment or other discontinuation criteria are met or upon study termination, or study completion, whichever occurs first. No on-study crossover will be allowed. This study will consist of 3 phases: screening, treatment and follow-up.
The Full Analysis Set (FAS) will be used for the efficacy analysis on OS and PFS1. All subjects who are randomized will be included in the FAS. For time to event endpoints including OS and PFS1 log-rank test stratified by randomization stratification factors including liver metastasis, baseline ECOG PS and regions of the world at baseline will be used to compare the 2 treatment arms. The hazard ratio and corresponding 95% confidence interval from the stratified Cox proportional hazards regression model will also be presented. The median OS, PFS1 and DOR will be estimated using the Kaplan-Meier method and will be reported along with the corresponding 95% confidence interval by treatment arm.
Efficacy analysis for OS and PFS was conducted on the FAS. The interpretation of results from statistical tests was based on the FAS. Efficacy analysis for response related endpoints, e.g., ORR and DCR was conducted on RES.
OS was formally tested at both interim analysis and final analysis. At either interim or final analysis, the formal hypothesis tests on the selected secondary endpoints including PFS1, ORR and DCR, were performed hierarchically (per the order of PFS1->ORR->DCR) only when the OS analysis is rejected. The details about the significance levels at interim analysis and final analysis for each efficacy endpoints (OS, PFS1, ORR and DCR) is specified in SAP.
The primary efficacy endpoint of OS was analyzed using the log-rank test stratified by ECOG PS (0 vs 1), regions of the world (Western EU, US or the rest of world) and liver metastasis (yes or no). Randomized treatment and the strata used for randomization was used for the analysis. In addition, the stratified Cox proportional hazard model was used to estimate the hazard ratio and the corresponding 95% confidence interval. The median OS was estimated using the Kaplan-Meier method and will be reported along with the corresponding 95% confidence interval by treatment arm.
The primary analysis was performed using the FAS.
Additional analyses such as unstratified log-rank test and OS analyses adjusting the crossover effect may be conducted, if appropriate. Details are specified in the SAP.

[4] = patients with confirmed complete or partial response

Substance: enfortumab vedotin
- median duration of response ([1]; patients who had a complete or partial response): 7.39 months
- Duration of Response (DOR), Events, % [1, 4]: (53.8%)
- Duration of Response, At 6 months [1, 4]: 53.8%
- Duration of Response, At 12 months [1, 4]: 27.7%
- Median of DOR [1, 4]: 7.39 Months
- dose-limiting toxicities (DLTs) observed ([2]; 1 mg/kg dose level, Grade 3 proctalgia, Grade 4 hyperuricemia): 2
- DLT ([2]; 1.25 mg/kg): No DLT was observed
- dose reductions due to AEs ([2]; 1.25 mg/kg vs lower dose levels): more frequent
- frequency of all TEAEs, AEs leading to withdrawal, and Grade 3-4 TEAEs ([2]; across dose levels): comparable across all dose levels
- Incidence of the most frequent drug-related AEs, such as diarrhea and rash ([2]; by dose level, primarily Grades 1-2): increased with increasing dose levels
- maximum tolerated dose (MTD) ([2]; dose levels 0.5, 0.75, 1 and 1.25 mg/kg): not reached
- rash and similar dermatologic AE's ([2]; phase 1 study, more frequent at the highest dose): common
- HR (95% CI), OS sensitivity analysis ([3]; Adjusting in chemotherapy arm based on the rank preserving structural failure time method): 0.705 (0.516-0.853)
- Median OS ([3]; All): 12.88 mo
- OS, EV vs SC HR ([3]; All): 0.702
- Overall survival (OS) Events, % ([3]; All): (44.5) %
- Overall survival (OS) Events, n/N ([3]; All): 134/301
- Median OS ([3]; FAS, Kaplan-Meier): 12.88 Months
- Deaths, % ([3]; FAS, interim analysis): (44.5%)
- # of Deaths ([3]; Full Analysis Set, data cutoff 15 Jul. 2020): 134
- HR (95% CI), OS sensitivity analysis ([3]; Inverse probability of censoring weights method): 0.630 (0.435-0.912)
- reduction in risk of death ([3]; PADCEV vs chemotherapy): 30%
- HR (95% CI), OS sensitivity analysis ([3]; Unstratified analysis): 0.719 (0.572-0.903)
- estimated percentage of patients alive at 12 months ([3]; in vivo): 51.5%
- overall survival (OS) compared with standard chemotherapy ([3]; in vivo): superior
- primary endpoint of overall survival compared to chemotherapy ([3]; in vivo): met its primary endpoint of overall survival
- risk of death lower with enfortumab vedotin than with chemotherapy ([3]; median follow-up 11.1 months): 30%
